System: NIH/3T3 mouse embryonic fibroblast cells
Experiment: Tissue module release/detachment from shape-memory pNIPAAm polymer microbeams upon thermally initiated swelling
Format: cell-based
Set-up: tissue module detachment after microbeam swelling (in words): dose or concentration left out as unconfirmed
Conditions: for effect of treatment on tissue module detachment (in words): all strains tested, pNIPAAm microbeams
Procedure: NIH/3T3 mouse embryonic fibroblast cells were cultured in 10% NCS growth medium containing 1% antibiotics (10,000 units/ml penicillin and 10,000 μg/ml streptomycin stock solution) at 37° C. in a humidified atmosphere of 5% CO2. To prepare tissue modules, trypsinized fibroblasts were seeded onto the fabricated shape-memory polymer arrays at a density of 500-750 cells/mm^2 and cultured at 37° C. until confluence (24-48 h). Studies of release from low cell density (100 cells/mm^2) were cultured for 24 h.
Rapid release of tissue modules was induced by thermally initiated swelling of the shape-memory polymer beams. 2 ml of cold PBS (4-10° C.) was introduced (1 ml at a time) into the seeded dish containing 2.5 ml of 37° C. medium resulting in cooling to about 27° C. Cell release was monitored via time-lapse image acquisition on a microscope for at least 70 s.
The mode of cell release from shape-memory polymer surfaces was examined by separately treating seeded samples with agents that modulate metabolism, contractility or adhesion.
To investigate the effect of surface strain on attached cells, the concentration of the network crosslinker (MBAm) in the prepolymer solution was varied from 1 to 4% before MIMIC processing. The one-dimensional width-wise strain in each microbeam was calculated from phase contrast micrographs as follows: […]
where ε is the Cauchy strain, Wcollapsed is the width of the polymer beam in the collapsed state and Wswollen is the width of the polymer beam in the swollen state. Cell detachment was calculated as the percent of cells released from the microbeams within 3 min after thermal stimulation.

Row | Compound | tissue module detachment after microbeam swelling (in words) (Y-27632 for 30 min prior to release, large strains (ε>0.25)) | effect of treatment on tissue module detachment (in words) | cell release after initiating shape change (in words) (2 mM DTSSP for 30 min prior to release, within 5 min of initiating shape change)
1 | C[C@@H](N)[C@H]1CC[C@H](C(=O)Nc2ccncc2)CC1 [Y-27632] | primarily remained attached | prevented tissue module detachment | –
2 | O=C(CCSSCCC(=O)ON1C(=O)CC(S(=O)(=O)O)C1=O)ON1C(=O)CC(S(=O)(=O)O)C1=O (stereo not shown) [DTSSP, 3,3′-dithiobissulfosuccinimidylpropionate] | – | prevented tissue module detachment | significant cell release was not observed

From US20180127700A1, “Cell Culture Substrate for Rapid Release and Re-Plating” (priority 2015, published 2018)
